Converted amounts (≈) assume the structure as drawn. Where two headings read alike, the source gives them in different places.
Key:
S. aureus A798 = test: MIC, broth microdilution (NCCLS); format: cell-based; conditions: for MIC: Staphylococcus aureus
Method: These assays have been performed following the description given in “Methods for dilution Antimicrobial Susceptibility Tests for Bacteria that Grow Aerobically, 4th ed.; Approved standard: NCCLS Document M7-A4; National Committee for Clinical Laboratory Standards Villanova, Pa., USA, 1997”. Minimal inhibitory concentrations (MICs; mg/l) were determined in cation-adjusted Mueller-Hinton Broth (BBL) by a microdilution method following NCCLS guidelines (National Committee for Clinical Laboratory Standards. Methods for Dilution Antimicrobial Susceptibility). The pH1 of the test medium was 7.2-7.3. In the particular case wherein the compound to be tested is a compound of formula IPDc wherein at least one of R^1 and R^2 represents OPO3H2, then the test was carried out in the presence of human alkaline phosphatase (concentration: 1 U/mL). In the particular case wherein the compound to be tested is a compound of formula IPDG wherein R^1 represents a group OCOR^5, then the test may be carried out in the presence of 50% human serum.

C. difficile NC 13366 = test: MIC, anaerobic broth microdilution, reference strains; format: cell-based, Clostridium difficile; conditions: Clostridioides difficile, NC13366, 48 h, read-out: MIC regarding C. difficile NC 13366
C. difficile ATCC 9689 = test: as above; format: cell-based, Clostridium difficile; conditions: Clostridioides difficile, ATCC9689, 48 h, read-out: MIC regarding C. difficile ATCC 9689
C. difficile ATCC 43596 = test: as above; format: cell-based, Clostridium difficile; conditions: Clostridioides difficile, ATCC43596, 48 h, read-out: MIC regarding C. difficile ATCC 43596
C. perfringens DSM 756 = test: microbe, parasite or virus in culture; format: cell-based; conditions: Clostridium perfringens, DSM756, 48 h, read-out: MIC regarding C. perfringens DSM 756
S. Pneumoniae 49619 = test: MIC, broth microdilution (NCCLS); format: cell-based
Method: (§1) These assays have been performed following the description given in “Methods for dilution Antimicrobial Susceptibility Tests for Bacteria that Grow Aerobically, 4th ed.; Approved standard: NCCLS Document M7-A4; National Committee for Clinical Laboratory Standards Villanova, Pa., USA, 1997”. Minimal inhibitory concentrations (MICs; mg/l) were determined in cation-adjusted Mueller-Hinton Broth (BBL) by a microdilution method following NCCLS guidelines (National Committee for Clinical Laboratory Standards. Methods for Dilution Antimicrobial Susceptibility). The pH1 of the test medium was 7.2-7.3.

M. catarrhalis A894 = test: MIC, broth microdilution (NCCLS); format: cell-based
E. faecalis 29212 = test: MIC, broth microdilution (NCCLS); format: cell-based; conditions: Enterococcus faecalis, read-out: MIC against E. faecalis 29212
Method: as §1

[1] = test system: C. difficile strain NC13366; format: cell-based
[2] = test system: 209 diverse clinical isolates of C. difficile; test: MIC, CLSI agar dilution, clinical isolates; format: cell-based, Clostridium difficile; conditions: Clostridioides difficile, 209 clinical isolates of C. difficile
[3] = A798, in the presence of human alkaline phosphatase (1 U/mL), read-out: MIC against S. aureus A798
[4] = A798, phosphatase absent, read-out: MIC against S. aureus A798
[5] = A798, read-out: MIC S. aureus A798
[6] = A798, in the absence of human serum, read-out: MIC against S. aureus A798

Question: `O=C(O)c1cn(C2CC2)c2cc(N3CCC(O)(COc4ccc(N5C[C@H](COP(=O)(O)O)OC5=O)cc4F)CC3)c(F)cc2c1=O` [Example 5, 1-cyclopropyl-6-fluoro-7-{4-[2-fluoro-4-((R)-2-oxo-5-phosphonooxymethyl-oxazolidin-3-yl)-phenoxymethyl]-4-hydroxy-piperidin-1-yl}-4-oxo-1,4-dihydro-quinoline-3-carboxylic acid] was tested. Which MIC (S. aureus A798; [3]) did it give?
Answer: The MIC was 0.25 µg/mL.

Question: What about the MIC (S. aureus A798; [4]) of the same compound?
Answer: Its MIC is > 16 µg/mL.

Question: How did the MIC (S. aureus A798; [5]) turn out when `O=C(O)c1c[nH]c2cc(N3CCC(O)(COc4ccc(N5C[C@H](CO)OC5=O)cc4F)CC3)c(F)cc2c1=O` [Example 13, 6-fluoro-7-{4-[2-fluoro-4-((R)-5-hydroxymethyl-2-oxo-oxazolidin-3-yl)-phenoxymethyl]-4-hydroxy-piperidin-1-yl}-4-oxo-1,4-dihydro-quinoline-3-carboxylic acid] was run?
Answer: Its MIC is 2 µg/mL (≈ 3.67 µM).

Question: Which results are given for `O=C(O)c1cn(C2CC2)c2cc(N3CCC(O)(COc4ccc(N5C[C@H](CO)OC5=O)cc4F)C3)c(F)cc2c1=O` (mixture of isomers) [Example 6, 1-cyclopropyl-6-fluoro-7-{(RS)-3-[2-fluoro-4-((R)-5-hydroxymethyl-2-oxo-oxazolidin-3-yl)-phenoxymethyl]-3-hydroxy-pyrrolidin-1-yl}-4-oxo-1,4-dihydro-quinoline-3-carboxylic acid]?
Answer: MIC (C. difficile NC 13366): 0.25 µg/mL; MIC (C. difficile ATCC 9689): 0.5 µg/mL; MIC (S. aureus A798; [5]): 1 µg/mL; MIC (C. difficile ATCC 43596): 0.25 µg/mL; MIC (C. perfringens DSM 756): 0.125 µg/mL

Question: For `O=C(O)c1cn(C2CC2)c2cc(N3CCC(COc4ccc(N5C[C@H](CO)OC5=O)cc4F)C3)c(F)cc2c1=O` (mixture of isomers) [Example 8, 1-cyclopropyl-6-fluoro-7-{(RS)-3-[2-fluoro-4-((R)-5-hydroxymethyl-2-oxo-oxazolidin-3-yl)-phenoxymethyl]-pyrrolidin-1-yl}-4-oxo-1,4-dihydro-quinoline-3-carboxylic acid], which MIC (S. aureus A798; [5]) is on record?
Answer: Its MIC is 0.125 µg/mL.

Question: For `COc1c(N2CCC(COc3ccc(N4C[C@H](CO)OC4=O)cc3F)C2)c(F)cc2c(=O)c(C(=O)O)cn(C3CC3)c12` (mixture of isomers) [Example 9, 1-cyclopropyl-6-fluoro-7-{(RS)-3-[2-fluoro-4-((R)-5-hydroxymethyl-2-oxo-oxazolidin-3-yl)-phenoxymethyl]-pyrrolidin-1-yl}-8-methoxy-4-oxo-1,4-dihydro-quinoline-3-carboxylic acid], which MIC (S. aureus A798; [5]) is on record?
Answer: Its MIC is 1 µg/mL.

Question: With `C[C@H](N)C(=O)OC[C@H]1CN(c2ccc(OCC3CCN(c4cc5c(cc4F)c(=O)c(C(=O)O)cn5C4CC4)CC3)c(F)c2)C(=O)O1.Cl` [Example 12, 7-(4-{4-[(R)-5-((S)-2-amino-propionyloxymethyl)-2-oxo-oxazolidin-3-yl]-2-fluoro-phenoxymethyl}-piperidin-1-yl)-1-cyclopropyl-6-fluoro-4-oxo-1,4-dihydro-quinoline-3-carboxylic acid hydrochloride] as the compound, how does the MIC (S. aureus A798; [6]) read?
Answer: The MIC was 0.5 µg/mL.

Question: Which “MIC S. Pneumoniae 49619” value (S. Pneumoniae 49619) does the source give for `COc1c(N2CCC(O)(COc3ccc(N4C[C@H](CO)OC4=O)cc3F)C2)c(F)cc2c(=O)c(C(=O)O)cn(C3CC3)c12` (mixture of isomers) [Example 7, 1-cyclopropyl-6-fluoro-7-{(RS)-3-[2-fluoro-4-((R)—S-hydroxymethyl-2-oxo-oxazolidin-3-yl)-phenoxymethyl]-3-hydroxy-pyrrolidin-1-yl}-8-methoxy-4-oxo-1,4-dihydro-quinoline-3-carboxylic acid] here?
Answer: Its value is 0.25 µg/mL (≈ 0.416 µM).

Question: What about the “MIC M. catarrhalis A894” value (M. catarrhalis A894) of the same compound?
Answer: The value was 0.063 µg/mL (≈ 0.105 µM).

Question: What about the “MIC S. aureus A798” value (S. aureus A798) of the same compound?
Answer: The value was 1 µg/mL (≈ 1.66 µM).

Question: For `O=C(O)c1cn(C2CC2)c2cc(N3CCC(COc4ccc(N5C[C@H](CO)OC5=O)cc4F)CC3)c(F)cc2c1=O` [Example 2, 1-cyclopropyl-6-fluoro-7-{4-[2-fluoro-4-((R)-5-hydroxymethyl-2-oxo-oxazolidin-3-yl)-phenoxymethyl]-piperidin-1-yl}-4-oxo-1,4-dihydro-quinoline-3-carboxylic acid], which MIC (S. aureus A798; [5]) is on record?
Answer: The MIC was 0.25 µg/mL (≈ 0.439 µM).

Question: Which MIC (S. aureus A798; [6]) does the source give for `C[C@H](N)C(=O)OC[C@H]1CN(c2ccc(OCC3(O)CCN(c4cc5c(cc4F)c(=O)c(C(=O)O)cn5C4CC4)CC3)c(F)c2)C(=O)O1.Cl` [Example 4, 7-(4-{-4-[(R)-5-((S)-2-amino-propionyloxymethyl)-2-oxo-oxazolidin-3-yl]-2-fluoro-phenoxymethyl}-4-hydroxy-piperidin-1-yl)-1-cyclopropyl-6-fluoro-4-oxo-1,4-dihydro-quinoline-3-carboxylic acid hydrochloride] here?
Answer: Its MIC is 0.5 µg/mL.

Question: Which results are given for `CCn1cc(C(=O)O)c(=O)c2cc(F)c(N3CCC(COc4ccc(N5C[C@H](CO)OC5=O)cc4F)CC3)cc21` [Example 11, 1-ethyl-6-fluoro-7-{4-[2-fluoro-4-((R)-5-hydroxymethyl-2-oxo-oxazolidin-3-yl)-phenoxymethyl]-piperidin-1-yl}-4-oxo-1,4-dihydro-quinoline-3-carboxylic acid]?
Answer: MIC (E. faecalis 29212): 8 µg/mL (≈ 14.3 µM); MIC (S. aureus A798; [5]): > 16 µg/mL

Question: Which results are given for `O=C(O)c1cn(C2CC2)c2nc(N3CCC(O)(COc4ccc(N5C[C@H](CO)OC5=O)cc4F)CC3)c(F)cc2c1=O` [Example 3, 1-cyclopropyl-6-fluoro-7-[4-[2-fluoro-4-((R)-5-hydroxymethyl-2-oxo-oxazolidin-3-yl)-phenoxymethyl]-4-hydroxy-piperidin-1-yl]-4-oxo-1,4-dihydro-[1,8]naphthyridine-3-carboxylic acid]?
Answer: MIC (M. catarrhalis A894; Moraxella catarrhalis, A894): 0.5 µg/mL (≈ 0.852 µM); MIC (S. aureus A798; [5]): 0.25 µg/mL (≈ 0.426 µM)

Question: Which “de novo toxin A production in supernatants” value [1] does the source give for `CN[C@H](CC(C)C)C(=O)N[C@H]1C(=O)N[C@@H](CC(N)=O)C(=O)N[C@H]2C(=O)N[C@H]3C(=O)N[C@H](C(=O)N[C@H](C(=O)O)c4cc(O)cc(O)c4-c4cc3ccc4O)[C@H](O)c3ccc(c(Cl)c3)Oc3cc2cc(c3O[C@@H]2O[C@H](CO)[C@@H](O)[C@H](O)[C@H]2O[C@H]2C[C@](C)(N)[C@H](O)[C@H](C)O2)Oc2ccc(cc2Cl)[C@H]1O` [vancomycin] here?
Answer: Its value is “did not inhibit toxin A production under these conditions or did so only weakly”.

Question: With `Cc1ncc([N+](=O)[O-])n1CCO` [metronidazole] as the compound, how does the “de novo toxin A production in supernatants” value ([1]; 1 and 8 μg/mL, day 5 vs day 1, high density stationary phase cultures) read?
Answer: Its value is “did not inhibit toxin A production under these conditions or did so only weakly”.

Question: What about the MIC90 [2] of the same compound?
Answer: The MIC90 was 1 µg/mL (≈ 5.84 µM).

Question: Which MIC (S. aureus A798; [3]) does the source give for `O=C(O)c1cn(C2CC2)c2cc(N3CCC(COc4ccc(N5C[C@H](CO)OC5=O)cc4F)(OP(=O)(O)O)CC3)c(F)cc2c1=O` [Example 10, 1-cyclopropyl-6-fluoro-7-{4-[2-fluoro-4-((R)-5-hydroxymethyl-2-oxo-oxazolidin-3-yl)-phenoxymethyl]-4-phosphonooxy-piperidin-1-yl}-4-oxo-1,4-dihydro-quinoline-3-carboxylic acid] here?
Answer: The MIC was 0.5 µg/mL.

Question: What about the MIC (S. aureus A798; [4]) of the same compound?
Answer: Its MIC is 16 µg/mL (≈ 24 µM).

Question: Which MIC (S. aureus A798; [5]) does the source give for `O=C(O)c1c[nH]c2nc(N3CCC(O)(COc4ccc(N5C[C@H](CO)OC5=O)cc4F)CC3)c(F)cc2c1=O` [Example 14, 6-fluoro-7-{4-[2-fluoro-4-((R)-5-hydroxymethyl-2-oxo-oxazolidin-3-yl)-phenoxymethyl]-4-hydroxy-piperidin-1-yl}-4-oxo-1,4-dihydro-[1,8]naphthyridine-3-carboxylic acid] here?
Answer: Its MIC is 4 µg/mL (≈ 7.32 µM).

Source: US8124623B2, “5-hydroxymethyl-oxazolidin-2-one-derivatives and their uses as antibacterials” (Actelion Pharmaceuticals Ltd., priority 2006, dated 2012)
